# According to patent publication US10307458B2, “Peptide as absorption enhancer and composition containing same” (SOONCHUNHYANG UNIVERSITY INDUSTRY ACADEMY COOPERATION …, priority 2014, dated 2019):
# Where no end group is shown, it is not given here.
# Legend:
# in vivo = conditions: male, Sprague-Dawley, rat, in vivo, inhaled or intranasal, 2.5 mg/kg
# Protocol: (§1) Male SD (Sprague-Dawley) rats (280-300 g) were provided to adapt to each separate cage of the animal facility at least 2 days. At this point, foods and water were freely allowed to the rats, which were exposed to light for 12 hours and kept in dark for another 12 hours. One day before the testing, the rats were provided with water only and kept from eating food.
# (§2) The peptides of the Preparation Examples or the Example, and mannitol(^3H-Mannitol, 14.2 Ci/mmol, PerkinElmer) were used to prepare the individual preparation groups given as follows:
# (§3) The first preparation group was a control group and prepared as an aqueous solution of 5% (w/v) dextrose containing mannitol without a peptide.
# (§4) The second preparation group was prepared as an aqueous solution of 5% (w/v) dextrose containing mannitol and the FCIGRL peptide of the Preparation Example 1.
# (§5) The third preparation group was prepared as an aqueous solution of 5% (w/v) dextrose containing mannitol and the Ac-FCIGRL peptide of the Preparation Example 2.
# (§6) The fourth preparation group was prepared as an aqueous solution of 5% (w/v) dextrose containing mannitol and the FCIGRL-NH2 peptide of the Example 1.
# (§7) The male SD rats provided above 1. were divided into four groups, each having five male SD rats. The first to fourth preparation groups were nasally administered into the first to fourth rat groups, respectively.
# (§8) At this point, the dosage of each solution was 70 μl per rat, where the dosages of mannitol and each peptide were 20 μCi/kg and 2.5 mg/kg, respectively.
# (§9) Prior to the nasal administration, each rat was anesthetized to implant a cannula into the jugular vein of it. The solution was taken into the nostrils of the rat through a micropipette (Eppendorf) with caution as not to affect the nasal mucous membrane, while the rat was lying on the back to rest its head sideways against the wall.
# (§10) 250 μl of blood was collected from each rat in 10, 20, 40, 60, 120, 180, 240 and 360 minutes after administration of the solution through jugular vein cannulation. The blood was subjected to centrifugal separation at 13,000 rpm for 10 minutes to obtain 100 μl of plasma. A scintillation cocktail solution was added to the plasma. Then, an LS6500 Universal counter (Beckman Coulter, Brea, Calif., USA) was used to measure the radiation quantity for the quantitative analysis of mannitol.
# (§11) The mannitol concentration in blood from the rats of each group is graphed in FIG. 1. Table 1 presents the pharmacokinetic parameters, that is, AUC, Cmax, Tmax, and T1/2 of mannitol.
# nasal mucous membrane = experiment: Nasal administration of 3H-mannitol with or without peptide to rats; mannitol concentration in blood (mucous membrane permeability); conditions: nasal, rats, peptide 2.5 mg/kg
# Protocol: as §1, §2, §3, §4, §5, §6, §7, §8, §9, §10, §11
# [1] = preparation group containing mannitol and the peptide, for nasal administration
# [2] = buffer solution that is slightly acid (pH 5.0), neutral, and basic; cited from earlier work
compound,measurement,setting,value
"OC[C@@H](O)[C@@H](O)[C@H](O)[C@H](O)CO [Mannitol, mannitol]",AUC(0-t),in vivo,0.101 ng·h/mL
same,Cmax,in vivo,0.0306 ± 0.00602 ng/mL
same,Tmax,in vivo,0.583 h
same,half-life,in vivo,3.59 ± 0.0515 h
Ac-FCIGRL [Ac-FCIGRL],difference in the blood mannitol concentration versus mannitol alone,nasal mucous membrane,no significant difference
Ac-FCIGRL-NH2 [Ac-FCIGRL-NH2],solubility of the peptide,[1],such a low solubility of the peptide as to make nasal administration of the peptide impossible
FCIGRL-NH2 [FCIGRL-NH2],AUC0-360min of mannitol relative to the administration group of mannitol alone,nasal mucous membrane; p<0.01,3.63 times
same,Cmax of mannitol relative to the administration group of mannitol alone,nasal mucous membrane; p<0.01,2.68 times
"H-FCIGRL-OH [FCIGRL, Phe-Cys-Ile-Gly-Arg-Leu]",difference in the blood mannitol concentration versus mannitol alone,nasal mucous membrane,no significant difference
same,maintenance of the intact form of peptide over time,[2],cannot maintain the intact form of peptide over time
